Measurements: patent publication US6599914B2, “Inhibition of cytokine generation” (Schering Corporation, priority 2001, dated 2003)
Entries after “also recorded” stand apart in the source; their conditions may differ.

How the values were obtained:
human basophils = settings: ionomycin 500 ng/ml; 0.1, 1.0 and 10 μM desloratadine; 4 hours
Experimental: Mixed leukocyte suspensions containing basophils were prepared either using double-Percoll density centrifugation as described (Schroeder, et al., J. Immunol.,1994, Vol. 153: 1808, or by a combination of countercurrent elutriation and Percoll density centrifugation protocols (MacGlashan, et al., J. Immunol.,1994, Vol. 153:3006-3016). The percentages of basophils obtained using these protocols typically ranged between 5-50% and 10-30%, respectively, and were determined by counting Alcian blue positive and negative stained cells on a Spiers-Levy chamber (Gilbert and Ornstein, 1975). For some experiments, the basophils were additionally purified to >99.9% using a negative-selection protocol (Miltenyi Corp., Auburn, Calif.). […] For the analysis of IL-4 mRNA expression, cells in C-IMDM were cultured in autoclaved (RNase-free) 1.5 ml microcentrifuge tubes (see below), since this allowed for a more precise way to quantitatively isolate mRNA without the need for transferring cells from culture wells before extraction. […] Histamine, LTC4, and IL-4 were all measured in aliquots of culture supernatant taken at 4 hours. […] LTC4 was measured by an in-house RIA (MacGlashan, et al., J. Immunol. 1986, Vol.136:2231-2239). IL-4 protein was measured by a commercial ELISA (Biosource International). […]

IL-4 mRNA = settings: desloratadine 10 μM
Experimental: Cultures for the analysis of IL-4 mRNA were performed in 1.5 ml polypropylene microcentrifuge tubes, as described above. […] Total RNA was isolated using the RNAzol protocol (Tel-test Inc., Friendswood, Tex.) after 2 hours incubation, which is the time that IL-4 message expression peaks using IgE-dependent activation (Schroeder, et al., J. Immunol.1997, Vol.158:5448-5454). Following isopropanol precipitation, the RNA was washed with 70% ethanol and dried under vacuum. Subsequently, the RNA was resuspended in 25 μl of diethipyrocarbonate (DEPC)-treated water and stored at −80° C. Reverse Transcription (RT) and polymerase chain reaction (PCR) were performed with serial dilutions of RNA as previously detailed (MacGlashan, et al., J. Immunol, 1994; Vol. 152:3006-3016; Schroeder, at al., J. Immunol., 1997, Vol. 158: 5448-5454) using the GeneAmp RNA PCR kit (Perkin-Elmer Cetus, Norwalk, Conn.). PCR products were visualized in 3% agrose gels using ethidium bromide staining.
Total RNA was isolated after 2 h and used for dilutional RT-PCR analysis to compare message expression for IL-4 and the housekeeping gene, hypoxanthine phosphoribosyl transferase (HPRT) (panel a).
For these experiments, we used a dilutional RT-PCR protocol to provide a semi-quantitative analysis.

endothelial cells = settings: in vitro; cited from earlier work
[1] = test system: human basophilic leukocyte cells; settings: in vitro; cited from earlier work
[2] = test system: seasonal allergic rhinitis patients; experiment: Double-blinded, randomized clinical trials in seasonal allergic rhinitis patients
Experimental: Efficacy endpoints in all the studies were Total Symptom Score, Total Nasal Symptom Score, Total Non-nasal Symptom Score, and Health Quality of Life (HQOL) analysis in efficacy trials. […] This parameter measures the total symptom relief by the patient after 24 hours before taking the next day dose.

basophilic cells = settings: relatively high concentrations; cited from earlier work

SMILES | effect on histamine secretion induced by ionomycin (human basophils) | effect on expression of the housekeeping gene HPRT (IL-4 mRNA) | histamine-induced release of IL-6 and IL-8 (endothelial cells) | IgE- and non-IgE-mediated histamine release [1] | reduction of nasal symptoms versus placebo ([2]; 5 mg) | total symptom scores ([2]; 5 mg once daily) | AM NOW total symptom score, full 24 hour dosing interval ([2]; 5 mg to 20 mg dosage range) | differences in effectiveness across subgroups defined by gender, age, or race ([2]; 5 mg to 20 mg dosage range) | inhibition of IL-4 and IL-13 secretion (basophilic cells)
Clc1ccc2c(c1)CCc1cccnc1C2=C1CCNCC1 [desloratadine] | lack of an effect; also recorded: unaffected | no effect; also recorded: unaffected | reduces | inhibits | significantly (p<0.01) more effective than placebo | significantly reduced | Statistically significant (p<0.05) reductions | no significant differences | 
CC(C)(C)c1ccc(C(O)CCCN2CCC(C(O)(c3ccccc3)c3ccccc3)CC2)cc1 (stereo not drawn) [terfenadine] |  |  |  |  |  |  |  |  | 50%
